Assay results reported in PubChem BioAssay (NCI).
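Cultured in 96-well plates, cells were exposed to test compound for 48 hours across five concentrations. GI50 is the concentration that inhibits growth by half. TGI denotes the concentration required for complete inhibition of growth.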 Where a SMILES comes first, the peptide text is derived from it. [ ]: non-standard residue; d: D form. Phe(ol) = N[C@H](CO)Cc1ccccc1; dIva = CC[C@@](C)(N)C(=O)O; Aib = CC(C)(N)C(=O)O

How the values were obtained:
Test in all cases: NCI anticancer screen, dose series, 48 h; in the data active means GI50 below about 0.43 µM; inactive means the rest
[1] = tested on: HS 578T breast
[2] = tested on: MALME-3M melanoma
[3] = tested on: U251 CNS
[4] = tested on: NCI/ADR-RES ovarian
[5] = tested on: IGROV1 ovarian
[6] = tested on: HCT-15 colon
[7] = tested on: BT-549 breast
[8] = tested on: CCRF-CEM leukemia
[9] = tested on: K-562 leukemia
[10] = tested on: COLO 205 colon
[11] = tested on: NCI-H460 lung
[12] = tested on: HOP-62 NSCLC
[13] = tested on: HCT-116 colon
[14] = tested on: SF-295 CNS
[15] = tested on: OVCAR-4 ovarian
[16] = tested on: PC-3 prostate
[17] = tested on: UO-31 renal
[18] = tested on: SNB-19 CNS
[19] = tested on: NCI-H522 lung
[20] = tested on: LOX IMVI melanoma
[21] = tested on: SR leukemia
[22] = tested on: SK-MEL-2 melanoma
[23] = tested on: A498 renal
[24] = tested on: UACC-62 melanoma
[25] = tested on: 786-0 renal
[26] = tested on: NCI-H226 lung
[27] = tested on: HL-60(TB) leukemia
[28] = tested on: SW-620 colon
[29] = tested on: MCF7 breast
[30] = tested on: SNB-75 CNS
[31] = tested on: SF-268 CNS
[32] = tested on: EKVX NSCLC
[33] = tested on: NCI-H23 lung
[34] = tested on: OVCAR-5 ovarian
[35] = tested on: KM12 colon
[36] = tested on: SK-OV-3 ovarian
[37] = tested on: HCC-2998 colon
[38] = tested on: SK-MEL-5 melanoma
[39] = tested on: MDA-MB-435
[40] = tested on: MDA-MB-231 breast
[41] = tested on: UACC-257 melanoma
[42] = tested on: TK-10 renal
[43] = tested on: T-47D breast
[44] = tested on: OVCAR-8 ovarian
[45] = tested on: SN12C renal
[46] = tested on: HT29 colon
[47] = tested on: RXF 393 renal
[48] = tested on: RPMI-8226 leukemia
[49] = tested on: A549 NSCLC
[50] = tested on: ACHN renal
[51] = tested on: SF-539 CNS
[52] = tested on: OVCAR-3 ovarian
[53] = tested on: HOP-92 NSCLC
[54] = tested on: SK-MEL-28 melanoma
[55] = tested on: MOLT-4 leukemia
[56] = tested on: M14 melanoma

CC[C@@](C)(NC(=O)C(C)(C)NC(=O)[C@@H](NC(=O)[C@@H]1CCCN1C(=O)C(C)(C)NC(=O)[C@H](CC(C)C)NC(=O)CNC(=O)C(C)(C)NC(=O)[C@@H](NC(=O)C(C)(C)NC(=O)[C@H](CCC(N)=O)NC(=O)[C@H](C)NC(=O)C(C)(C)NC(=O)[C@H](C)NC(=O)C(C)(C)NC(=O)[C@@H]1CCCN1C(=O)C(C)(C)NC(C)=O)C(C)C)C(C)C)C(=O)N[C@@H](CCC(N)=O)C(=O)N[C@@H](CCC(N)=O)C(=O)N[C@H](CO)Cc1ccccc1 (Ac-[Aib]P[Aib]A[Aib]AQ[Aib]V[Aib]GL[Aib]PV[Aib][dIva]QQ[Phe(ol)])
4.03 µM: TGI [19]
4.02 µM: TGI [43]
2.41 µM: TGI [48]
2.08 µM: TGI [27]
2.14 µM: TGI [2]
> 4.25 µM: TGI [1] | TGI [3] | TGI [4] | TGI [5] | TGI [6] | TGI [8] | TGI [9] | TGI [10] | TGI [11] | TGI [12] | TGI [13] | TGI [14] | TGI [15] | TGI [16] | TGI [17] | TGI [18] | TGI [20] | TGI [21] | TGI [22] | TGI [23] | TGI [24] | TGI [25] | TGI [26] | TGI [28] | TGI [29] | TGI [30] | TGI [31] | TGI [32] | TGI [33] | TGI [34] | TGI [35] | TGI [36] | TGI [37] | TGI [39] | TGI [40] | TGI [41] | TGI [42] | TGI [44] | TGI [45] | TGI [46] | TGI [49] | TGI [50] | TGI [51] | TGI [52] | TGI [54] | TGI [55] | TGI [56]
inactive: GI50 [1] 2.48 µM | GI50 [2] 0.856 µM | GI50 [3] 1.61 µM | GI50 [4] > 4.25 µM | GI50 [5] 2.51 µM | GI50 [6] > 4.25 µM | GI50 [7] 0.966 µM | GI50 [8] 2.93 µM | GI50 [9] 2.4 µM | GI50 [10] 1.29 µM | GI50 [11] 1.52 µM | GI50 [12] > 4.25 µM | GI50 [13] 1.75 µM | GI50 [14] > 4.25 µM | GI50 [15] 1.57 µM | GI50 [16] 1.66 µM | GI50 [17] > 4.25 µM | GI50 [18] 1.27 µM | GI50 [19] 0.873 µM | GI50 [20] 1.36 µM | GI50 [21] 1.41 µM | GI50 [22] 1.37 µM | GI50 [23] > 4.25 µM | GI50 [24] 1.73 µM | GI50 [25] > 4.25 µM | GI50 [26] > 4.25 µM | GI50 [27] 0.96 µM | GI50 [28] 3.34 µM | GI50 [30] 1.15 µM | GI50 [31] 1.63 µM | GI50 [32] > 4.25 µM | GI50 [33] 1 µM | GI50 [34] 1.64 µM | GI50 [35] 1.47 µM | GI50 [36] 1.55 µM | GI50 [37] 1.96 µM | GI50 [38] 1.17 µM | GI50 [39] 1.16 µM | GI50 [40] 1.43 µM | GI50 [41] 1.21 µM | GI50 [42] > 4.25 µM | GI50 [43] 0.974 µM | GI50 [44] > 4.25 µM | GI50 [45] 0.789 µM | GI50 [46] 1.72 µM | GI50 [47] 0.964 µM | GI50 [49] 2.39 µM | GI50 [50] > 4.25 µM | GI50 [51] 1.53 µM | GI50 [52] 1.14 µM | GI50 [53] 1.06 µM | GI50 [54] 1.66 µM | GI50 [55] 1.47 µM | GI50 [56] > 4.25 µM
3.11 µM: TGI [47]
2.95 µM: TGI [53]
active: GI50 [29] 0.215 µM | GI50 [48] 0.265 µM
2.67 µM: TGI [7]
3.62 µM: TGI [38]
